# Literature values in patent publication US7083961B1 (priority 2002, dated 2006).
# Molecular target: T. foetus IMPDH (Tritrichomonas foetus, UniProt P50097)
# Details: T. foetus enzyme, without cofactor bound
# Sequence of T. foetus IMPDH (P50097 whole entry): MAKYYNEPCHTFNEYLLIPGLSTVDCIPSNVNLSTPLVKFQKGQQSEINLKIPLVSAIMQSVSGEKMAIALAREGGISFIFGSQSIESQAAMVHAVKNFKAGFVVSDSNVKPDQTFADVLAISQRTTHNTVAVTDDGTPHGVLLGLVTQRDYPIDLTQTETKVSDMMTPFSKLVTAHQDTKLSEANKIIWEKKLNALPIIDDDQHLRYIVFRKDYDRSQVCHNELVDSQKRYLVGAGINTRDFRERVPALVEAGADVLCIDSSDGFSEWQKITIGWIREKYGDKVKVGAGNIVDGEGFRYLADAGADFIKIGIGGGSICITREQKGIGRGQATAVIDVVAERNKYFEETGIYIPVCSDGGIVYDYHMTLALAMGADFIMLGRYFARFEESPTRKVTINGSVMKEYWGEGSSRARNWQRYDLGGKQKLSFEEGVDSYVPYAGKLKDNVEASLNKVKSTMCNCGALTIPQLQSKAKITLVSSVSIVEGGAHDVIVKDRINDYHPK
smiles,measurement,value
"O=c1[nH]c(=O)c2ncn([C@@H]3O[C@H](COP(=O)(O)O)[C@@H](O)[C@H]3O)c2[nH]1 [XMP, xanthosine monophosphate]",off-rate,17 s⁻¹
